Source: US4720495A, “Benzo[ij]quinolizine-2-carboxylic acids useful for treating bacterial infection” (priority 1985, dated 1988)
Values after ≈ are worked out from the molar mass of the structure shown.

Key:
[1] = test system: Pseudomonas aeruginosa NCTC 10490; test: minimal inhibitory concentration, in vitro antibacterial activity; assay type: cell-based; details: NCTC10490, 37° C., 20 hours
Description: (§1) The in vitro antibacterial activities of typical examples of the present compounds [I] were evaluated in terms of the minimal inhibitory concentration defined as the lowest concentration of the compound preventing the bacterial growth. The Gram-positive bacteria used as test microorganisms included Bacillus subtilis, Staphylococcus aureus and Streptococcus faecalis, and the Gram-negative bacteria used as test microorganisms included Escherichia coli, Enterobacter cloacae, Klebsiella pneumoniae, Proteus vulgaris, Pseudomonas aeruginosa, Serratia marcescens and Salmonella enteritidis. The minimal inhibitory concentration (cultured at 37° C. for 20 hours) was determined according to the standard method prescribed by the Japan Society of Chemotherapy (CHEMOTHERAPY, Vol. 29, No. 1, p. 76, 1981). The following compounds were used as typical examples of the present compounds [I]. At the end of the chemical name of each compound, its tentative designation is given in Parentheses.
(§2) For purposes of comparison, the in vitro antibacterial activities of ofloxacin, OPC-7241 and compound α were evaluated according to the same method as described above and the test results thus obtained are also shown in Table 1.

[2] = test system: Bacillus subtilis ATCC 6633; test: as above; assay type: cell-based; details: ATCC6633, 37° C., 20 hours
Description: as §1, §2

[3] = test system: Serratia marcescens IAM 1184; test: as above; assay type: cell-based; details: IAM1184, 37° C., 20 hours
Description: as §1, §2

[4] = test system: Proteus vulgaris ATCC 13315; test: as above; assay type: cell-based; details: ATCC13315, 37° C., 20 hours
Description: as §1, §2

[5] = test system: Klebsiella pneumoniae PCI 602; test: as above; assay type: cell-based; details: PCI602, 37° C., 20 hours
Description: as §1, §2

[6] = test system: Escherichia coli NIHJ JC-2; test: as above; assay type: cell-based; details: NIHJJC2, 37° C., 20 hours
Description: as §1, §2

[7] = test system: Salmonella enteritidis G14; test: as above; assay type: cell-based; details: Salmonella enterica, 37° C., 20 hours
Description: as §1, §2

[8] = test system: Streptococcus faecalis AHU 1085; test: as above; assay type: cell-based; details: Enterococcus faecalis, AHU1085, 37° C., 20 hours
Description: as §1, §2

Escherichia coli CI-304 [9] = test: as above; assay type: cell-based; details: CI304, 37° C., 20 hours
Description: as §1, §2

[10] = test system: Staphylococcus aureus FDA 209P JC-1; test: as above; assay type: cell-based; details: FDA209P, 37° C., 20 hours
Description: as §1, §2

Enterobacter cloacae 963 = test: as above; assay type: cell-based; details: 37° C., 20 hours
Description: as §1, §2

Gram-positive bacteria = test: confirmatory experiment on the antibacterial activity of Compound α; assay type: cell-based
Source text: (§3) On the other hand, Compound α has only been reported to be useful as an intermediate material for the preparation of 9-fluoro-6, 7-dihydro-7-hydroxy-5-methyl-1-oxo-1H, 5H-benzo[ij]quinolizine-2-carboxylic acid (Japanese Patent Laid-Open No. 127,099/'76), and no detailed report on its antibacterial activity has been published.

[11] = test system: Gram-negative bacteria (such as Pseudomonas aeruginosa, Serratia marcescens and the like); test: as above; assay type: cell-based
Source text: as §3

[12] = enteral absorbability, serum concentration after oral administration to mice; assay type: in vivo; details: mouse, 50 mg/kg orally, fasted male ICR mice; for concentration at 0.5 h: 30 min.
Description: Using male ICR mice fasted overnight (weighing 20±1 g), the enteral absorbability of some typical examples of the present compounds [I] was tested. This test was carried out by administering 50 mg/kg of each test compound orally to mice and determining its serum concentration 30 minutes, 1 hour, 2 hours and 4 hours after administration. Five mice were used for each test point. At each test point, whole blood was collected from the mice by cardiac puncture and used to prepare serum samples. Concentrations of the test compounds in serum samples were determined by the paper disc method using Escherichia coli CI-304 as the test microorganism.
For purposes of comparison, the enteral absorbability of ofloxacin and OPC-7241 was tested in the same manner as described above and the results thus obtained are also shown in Table 2.

Escherichia coli CI-304 [13] = test: therapeutic effect on experimentally induced infection in mice; assay type: in vivo, Escherichia coli CI-304 in male ddY strain mice; details: CI304, po, 168 h, orally, one hour after inoculation, survival after 7 days
Description: Using male ddY strain mice infected with Escherichia coli CI-304 (in groups of five; weighing 20±1 g), the therapeutic effect of some typical examples of the present compounds [I] was tested. The therapeutic effect was evaluated by administering each test compound orally to infected mice and calculating ED50 from the number of mice surviving after the lapse of 7 days. Infected mice were prepared by suspending cells of the aforesaid Escherichia coli strain in a 5% mucin solution and injecting this suspension into the peritoneal cavity of mice. The dose of the bacterial cells was ten times the minimal lethal dose which had previously been determined by a preliminary test. One hour after inoculation of the bacterial cells, each test compound was administered orally to the mice.
For purposes of comparison, ofloxacin and OPC-7241 were tested in the same manner as described above and the results thus obtained are also shown in Table 3.

[14] = 1 mg/mouse (equivalent to 50 mg/kg) orally, cited from earlier work
[15] = test system: Gram-negative and Gram-positive bacteria; details: in vitro tests with Gram-negative and Gram-positive bacteria; cited from earlier work
[16] = 50 mg/kg orally, fasted mice, after 30 minutes; cited from earlier work

Compound `CC1CC(=O)c2cc(F)cc3c(=O)c(C(=O)O)cn1c23` (stereo not drawn) [Compound α, 9-fluoro-6,7-dihydro-1,7-dioxo-5-methyl-1H, 5H-benzo[ij]quinolizine-2-carboxylic acid, reference compound] has an MIC [1] of over 100 µg/mL, an MIC [2] of 12.5 µg/mL (≈ 45.4 µM) and an MIC [3] of over 100 µg/mL. It also gave an MIC [4] of 25 µg/mL (≈ 90.8 µM), an MIC [5] of 12.5 µg/mL (≈ 45.4 µM) and an MIC [6] of 25 µg/mL (≈ 90.8 µM). For the same compound, the MIC [7] was 50 µg/mL (≈ 182 µM), the MIC [8] was over 100 µg/mL and the MIC (Escherichia coli CI-304 [9]) was 12.5 µg/mL (≈ 45.4 µM). For the same compound, the MIC [10] was over 100 µg/mL, the MIC (Enterobacter cloacae 963) was 12.5 µg/mL (≈ 45.4 µM) and the “efficacy against Gram-positive bacteria” value (Gram-positive bacteria) was “low”. For the same compound, the “efficacy against Gram-negative bacteria” value [11] was “utterly ineffective”.

`CC1CCc2c(N3CCN(C)CC3)c(F)cc3c(=O)c(C(=O)O)cn1c23` (stereo not shown) [OPC-7241, 9-fluoro-6,7-dihydro-5-methyl-8-(4-methyl-1-piperazinyl)-1-oxo-1H, 5H-benzo[ij]quinolizine-2-carboxylic acid, reference compound] showed an MIC [1] of 3.13 µg/mL (≈ 8.71 µM), an MIC [2] of 0.1 µg/mL (≈ 0.278 µM) and an MIC [3] of 1.56 µg/mL (≈ 4.34 µM). The MIC [4] was 0.1 µg/mL (≈ 0.278 µM), the MIC [5] was 0.1 µg/mL (≈ 0.278 µM) and the MIC [6] was 0.39 µg/mL (≈ 1.09 µM). For the same compound, the MIC [7] was 0.78 µg/mL (≈ 2.17 µM), the MIC [8] was 0.78 µg/mL (≈ 2.17 µM) and the MIC (Escherichia coli CI-304 [9]) was 0.2 µg/mL (≈ 0.556 µM). The MIC [10] was 0.39 µg/mL (≈ 1.09 µM), the MIC (Enterobacter cloacae 963) was 0.78 µg/mL (≈ 2.17 µM) and the concentration at 0.5 h [12] was 9300 ng/mL. It also gave a concentration at 1 h [12] of 7800 ng/mL, a concentration at 2 h [12] of 4100 ng/mL and a concentration at 4 h [12] of 2200 ng/mL. The ED50 (Escherichia coli CI-304 [13]) was 1.7 mg/kg.

With `CC1COc2c(N3CCN(C)CC3)c(F)cc3c(=O)c(C(=O)O)cn1c23` (stereo not shown) [Ofloxacin, 9-fluoro-3-methyl-10-(4-methyl-1-piperazinyl)-7-oxo-2,3-dihydro-7H-pyrido[1,2,3-de][1,4]benzoxazine-6-carboxylic acid, reference compound] the MIC [1] was 0.78 µg/mL (≈ 2.16 µM), the MIC [2] was 0.1 µg/mL (≈ 0.277 µM) and the MIC [3] was 0.78 µg/mL (≈ 2.16 µM). For the same compound, the MIC [4] was 0.1 µg/mL (≈ 0.277 µM), the MIC [5] was 0.1 µg/mL (≈ 0.277 µM) and the MIC [6] was 0.2 µg/mL (≈ 0.553 µM). It also gave an MIC [7] of 0.39 µg/mL (≈ 1.08 µM), an MIC [8] of 0.78 µg/mL (≈ 2.16 µM) and an MIC (Escherichia coli CI-304 [9]) of 0.1 µg/mL (≈ 0.277 µM). For the same compound, the MIC [10] was 0.2 µg/mL (≈ 0.553 µM), the MIC (Enterobacter cloacae 963) was 0.2 µg/mL (≈ 0.553 µM) and the “residual concentration in the serum” value ([14]; 2 hours after administration) was 1.5 µg/mL. For the same compound, the serum concentration ([14]; fasted mice, after 30 minutes) was 10000 ng/mL, the concentration at 0.5 h [12] was 9000 ng/mL and the concentration at 1 h [12] was 6200 ng/mL. It also gave a concentration at 2 h [12] of 2600 ng/mL, a concentration at 4 h [12] of 1200 ng/mL and an ED50 (Escherichia coli CI-304 [13]) of 0.9 mg/kg.

For `CCn1cc(C(=O)O)c(=O)c2cc(F)c(N3CCNCC3)cc21` [norfloxacin, 1-ethyl-6-fluoro-1,4-dihydro-7-(1-piperazinyl)-4-oxoquinoline-3-carboxylic acid], the antibacterial activity [15] is listed as “excellent antibacterial activity” and the “degree of absorption into the serum, average peak value” [16] is listed as 1 ± 0.6 µg/mL.
